Experimental data published in PMC11788324, “4,6-Disubstituted pyrimidine-based microtubule affinity-regulating kinase 4 (MARK4) inhibitors: synthesis, characterization, in-vitro activity and in-silico studies” (Frontiers in Pharmacology, 2025).

Columns and labels:
MARK4 [1] = biological target: T1, MARK4 (Homo sapiens, UniProt Q96L34); assay: MARK4 ATPase (malachite green) enzyme inhibition assay; assay type: biochemical; conditions: MARK4 5 μM, 1 hour at 25°C, triplicates
T1 sequence (Q96L34 1-752): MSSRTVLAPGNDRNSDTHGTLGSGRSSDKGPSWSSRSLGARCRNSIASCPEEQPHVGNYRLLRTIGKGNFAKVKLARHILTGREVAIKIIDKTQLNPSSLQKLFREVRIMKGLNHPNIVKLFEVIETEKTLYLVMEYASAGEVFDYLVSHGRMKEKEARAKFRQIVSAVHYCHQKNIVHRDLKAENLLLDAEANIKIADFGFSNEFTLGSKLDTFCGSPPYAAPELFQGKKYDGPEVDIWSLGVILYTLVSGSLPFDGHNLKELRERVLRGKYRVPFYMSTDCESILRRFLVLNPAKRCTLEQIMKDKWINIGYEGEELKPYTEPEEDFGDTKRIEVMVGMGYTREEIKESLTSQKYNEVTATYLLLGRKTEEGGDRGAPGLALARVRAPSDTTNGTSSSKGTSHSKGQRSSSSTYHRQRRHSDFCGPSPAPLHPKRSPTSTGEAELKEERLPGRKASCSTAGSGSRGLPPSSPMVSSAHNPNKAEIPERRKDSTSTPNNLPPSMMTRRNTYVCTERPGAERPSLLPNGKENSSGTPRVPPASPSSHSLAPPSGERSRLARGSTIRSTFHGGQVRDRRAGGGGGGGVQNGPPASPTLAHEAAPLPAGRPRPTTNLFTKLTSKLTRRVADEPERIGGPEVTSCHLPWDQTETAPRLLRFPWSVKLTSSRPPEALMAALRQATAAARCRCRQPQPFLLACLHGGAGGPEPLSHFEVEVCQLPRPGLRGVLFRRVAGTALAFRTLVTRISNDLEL
Description: The inhibitory potential of the synthesized compounds against MARK4 was analysed using the malachite green based enzyme inhibition assay. The malachite green kinase inhibition assay is a colorimetric technique designed to assess kinase activity by detecting the release of inorganic phosphate (Pi) during phosphorylation. When a kinase transfers a phosphate group from ATP to its substrate, Pi is generated as a byproduct. The malachite green reagent interacts with Pi to produce a green-colored complex, which can be quantified using a spectrophotometer. This assay is modified to evaluate enzyme inhibition by measuring the reduction in Pi release in the presence of potential inhibitors. […] The protein’s highest activity, MARK4 (ligand-free), was utilised as a reference, and various ligand concentrations were added to determine the IC50 value. […] Finally 96 well plates were filled with 100 μL of the reaction mixture, which was then scanned at 620 nm using a multiscan ELISA reader. […]
MARKs, or microtubule-affinity regulating kinases, are a group of serine/threonine kinases found in mammals and other organisms ([Naz et al., 2013]). […] In the present study, we selected MARK4 as the target and assessed our compounds against it. […] Following this, attempts have been made to collect the fluorescence quenching of MARK4 in the presence of the best inhibitor (14). […]

MARK4 [2] = biological target: T1, MARK4; assay: Fluorescence quenching of MARK4; assay type: binding; conditions: data not included
Excerpt: MARKs, or microtubule-affinity regulating kinases, are a group of serine/threonine kinases found in mammals and other organisms ([Naz et al., 2013]). These kinases play a critical role in phosphorylating microtubule-associated proteins, which then go on to regulate important processes like cell cycle progression and cytoskeletal dynamics. These kinases are quite abundant in the human brain and are known to be key players in the development and progression of various diseases including cancer and ADs ([Alam et al., 2023]). Despite their high importance, there has been limited research on the development of synthetic small molecules (inhibitors) against MARK4 ([Li et al., 2020]; [Voura et al., 2022]). In the present study, we selected MARK4 as the target and assessed our compounds against it. The kinase inhibitory potential of the compounds against MARK4 was examined using an ATPase inhibition assay ([Yousuf et al., 2015]; [Yousuf et al., 2022]). […] Following this, attempts have been made to collect the fluorescence quenching of MARK4 in the presence of the best inhibitor (14). […] The rationale behind the behaviour is currently under investigation.

[3] = parameters: method as in Pant et al., 2024; conditions: compared with donepezil; ref Pant et al., 2024; cited from earlier work

Compound `COc1ccc(S(=O)(=O)N2CCN(c3cc(-c4ccsc4)ncn3)CC2)c(OC)c1` [Compound 9, 4-(4-((2,4-Dimethoxyphenyl)-sulfonyl)-piperazin-1-yl)-6-(thiophen-3-yl)-pyrimidine] has an IC50 (MARK4 [1]) of 13 ± 0.63 µM.

For `O=S(=O)(c1cccc2ccccc12)N1CCN(c2cc(-c3ccsc3)ncn2)CC1` [Compound 14, 4-(4-(Naphthalen-1-ylsulfonyl)-piperazin-1-yl)-6-(thiophen-3-yl)-pyrimidine], the IC50 (MARK4 [1]) was 7.52 ± 0.33 µM and the “fluorescence quenching of MARK4 emission” value (MARK4 [2]) was “did not show appreciable quenching”.

In the case of `Clc1ccc(Cc2ccnc(CCN3CCCCC3)n2)cc1` [a], the neuroprotective effects [3] is given as “neuroprotective effects better than donepezil”.
